A word on the IC50: it is the concentration at which inhibition is half-maximal.

The text below walks through data of patent US6303625A, “Triazolopyridines for the treatment of thrombosis disorders” (Ortho-McNeil Pharmaceutical, Inc., priority 1999, dated 2001).

In experiment [1] the target is T1, GPIIb/IIIa (Homo sapiens, UniProt P05106+P08514). Conditions: background statement; cited from earlier work.
The test system of the next experiment is gel-filtered platelets. In words: In vitro inhibition of thrombin-induced gel-filtered platelet aggregation. The experiment is classed as cell-based. The following applies: Homo sapiens; for inhibition at 50 µM: read-out: Platelet Aggregation % Inh. (50 μM). On the procedure: In Vitro Inhibition of Thrombin-Induced Gel-Filtered Platelet Aggression Assay
The percentage of platelet aggregation is calculated as an increase in light transmission of compound-treated platelet concentrate vs. control-treated platelet concentrate. Human blood was obtained from drug free, normal donors into tubes containing […] sodium citrate. Platelet rich plasma (PRP) was collected by centrifugation of whole blood at 200×g for 10 min at 25° C. The PRP (5 mL) was gel filtered through Sepharose 2B (bed volume 50 mL), and the platelet count was adjusted to 2×10^7 platelets per sample. The following constituents were added to a siliconized cuvette: concentrated platelet filtrate and Tyrode's buffer (0.14M NaCl, 0.0027M KCl, 0.012M NaHCO3,0.76 mM Na2 HPO4, 0.0055M glucose, 2 mg/mL BSA and 5.0 mM HEPES @ pH 7.4) in an amount equal to 350 μl, 50 μl of 20 mM calcium and 50 μl of the test compound. Aggregation was monitored in a BIODATA aggregometer for the 3 min following the addition of agonist (thrombin 50 μl of 1 unit/mL).

Experiment [2] concerns the target T1, GPIIb/IIIa. In words: In vitro solid phase purified glycoprotein IIb/IIIa binding assay (fibrinogen binding). Conditions: for inhibition at 50 µM: read-out: Fibrinogen Binding % Inh. (50 μM). The method, then: In Vito Solid Phase Purified Glycoprotein IIB/IIA Binding Assay
The plate was covered and incubated overnight at 4° C. The GPIIb/IIa solution was discarded and 150 μl of 5% BSA was added and incubated at RT for 1-3 h. The plate was washed extensively with modified Tyrodes buffer. Biotinylated fibrinogen (25 μl/well) at 2×final concentration was added to the wells that contain the test compounds (25 μl/well). The plate was covered and incubated at RT for 2-4 h. Twenty minutes prior to incubation completion, one drop of Reagent A (Vecta Stain ABC Horse Radish Peroxidase kit, Vector Laboratories, Inc.) and one drop Reagent B were added with mixing to 5 mL modified Tyrodes buffer mix and let stand. The ligand solution was discarded and the plate washed (5×200 μl/well) with modified Tyrodes buffer. Vecta Stain HRP-Biotin-Avidin reagent (50 μl/well, as prepared above) was added and incubated at RT for 15 min. The Vecta Stain solution was discarded and the wells washed (5×200 μl/well) with modified Tyrodes buffer. Developing buffer (10 mL of 50 mM citrate/phosphate buffer @ pH 5.3, 6 mg o-phenylenediamine, 6 μl 30% H2 O2; 50 μl/well) was added and incubated at RT for 3-5 min, and then 2N H2 SO4 (50 μl/well) was added. The absorbance was read at 490 nm.

Experiment [3] relates to ADP-induced ex vivo platelet aggregation. In words: Ex vivo dog study: duration of >50% inhibition of ADP-induced ex vivo platelet aggregation. The class given is in vivo. On the procedure:
Adult mongrel dogs (8-13 kg) were anesthetized with sodium pentobarbital (35 mg/kg, i.v.) and artificially respired. Arterial blood pressure and heart rate were measured using a Millar catheter-tip pressure transducer inserted in a femoral artery. Another Millar transducer was placed in the left ventricle (LV) via a carotid artery to measure LV end diastolic pressure and indices of myocardial contractility. A lead II electrocardiogram was recorded from limb electrodes. Catheters were placed in a femoral artery and vein to sample blood and infuse drugs, respectively. Responses were continuously monitored using a Modular Instruments data acquisition system.
Arterial blood samples (5-9 ml) were withdrawn into tubes containing 3.8% sodium citrate to prepare platelet rich plasma (PRP) and to determine effects on coagulation parameters: prothrombin time (PT) and activated partial thromboplastin time (APTT). Separate blood samples (1.5 ml) were withdrawn in EDTA to determine hematocrit and cell counts (platelets, RBC's and white cells). Template bleeding times were obtained from the buccal surface using a symplate incision devise and Whatman filter paper.
Aggregation of PRP was performed using a BioData aggregometer. Aggregation of whole blood used a Chronolog impedance aggregometer. PT and APTT were determined on either a BioData or ACL 3000+ coagulation analyzer. Cells were counted with a Sysmex K-1000.
Compounds were solubilized in a small volume of dimethylformamide (DMF) and diluted with saline to a final concentration of 10% DMF. Compounds were administered by the intravenous route with a Harvard infusion pump. Doses was administered over a 15 min interval at a constant rate of 0.33 ml/min. Data were obtained after each dose and in 30 min intervals following the end of drug administration. Oral doses were administered as aqueous solutions via syringe.

The test system of experiment [4] is in vitro thrombin-induced platelet aggregation. Conditions: L. Alig, J. Med. Chem. 1992, 35, 4393; read-out: IC50 against in vitro thrombin-induced platelet aggregation; cited from earlier work.

No end group written: not given here.

In the case of Arg-Gly-Asp, at GPIIb/IIIa [1], the “inhibition of fibrinogen binding to GPIIb/IIIa” value is listed as “shown to inhibit fibrinogen binding to GPIIb/IIIa”.

`O=C(N[C@@H](CNC(=O)C1CCCn2c(/C=C/C3CCNCC3)nnc21)C(=O)O)OCc1ccccc1` (stereo partly drawn) [Compound 5, β-[[[5,6,7,8-Tetrahydro-3-[2-(4-pipieridinyl)E-ethylene]-1,2,4-triazolo[4,3-a]pyridin-8-yl]carbonyl]amino]-αS-benzyloxycarbonylamino-propanoic acid]: the IC50 with gel-filtered platelets came out at 23 nM; at GPIIb/IIIa [2], 0.1 nM. Besides, the inhibition at 50 µM in the experiment on gel-filtered platelets and on GPIIb/IIIa [2] was 100% throughout. Moreover, in experiment [3] (0.1 mpk), the “Intravenous Dosing Duration (of >50% inhibition of ADP-induced ex vivo platelet aggregation)” value worked out at 120 min. In addition, the “Oral Dosing Duration (of >50% inhibition of ADP-induced ex vivo platelet aggregation)” value in experiment [3] (1 mpk) came out at 360 min.

Take `O=C(O)C[C@H](NC(=O)C1CCCn2c(CCC3CCNCC3)nnc21)c1cccnc1` (stereo partly drawn) [Compound 1, β-[[[5,6,7,8-Tetrahydro-3-[2-(4-piperidinyl)ethyl]-1,2,4-triazolo[4,3-a]pyridin-8-yl]carbonyl]amino]-βS-3-pyridinepropanoic acid]: in the experiment with gel-filtered platelets, the midpoint of inhibition, the IC50, lay at 16 nM and the inhibition at 50 µM came to 100%. For the same molecule, at GPIIb/IIIa [2], the IC50 amounted to 0.4 nM and the inhibition at 50 µM was 100%. Further, in experiment [3] (0.3 mpk), the “Intravenous Dosing Duration (of >50% inhibition of ADP-induced ex vivo platelet aggregation)” value was found to be 180 min. For the same molecule, the “Oral Dosing Duration (of >50% inhibition of ADP-induced ex vivo platelet aggregation)” value in experiment [3] (3 mpk) is listed as 360 min.

Take `CN(CC(=O)c1ccc(OCC(=O)O)c(OCC(=O)O)c1)C(=O)c1ccc(C(=N)N)cc1` [Ro-438857]: the 50% inhibitory concentration (IC50) in experiment [4] is 94 nM.

Turning to “HHLGGAKQAGDV [gamma-chain peptide region of fibrinogen (γ400-411)]”, the “inhibition of fibrinogen binding to GPIIb/IIIa” value with GPIIb/IIIa [1] is reported as “shown to inhibit fibrinogen binding to GPIIb/IIIa”.

As for `CC1(C(=O)NC[C@H](NC(=O)OCc2ccccc2)C(=O)O)CCCn2c(CCC3CCNCC3)nnc21` (stereo partly drawn) [Compound 8, β-[[[5,6,7,8-Tetrahydro-8-methyl-3-[2-(4-piperidinyl)ethyl]-1,2,4-triazolo[4,3-a]pyridin-8-yl]carbonyl]amino]-αS-benzyloxycarbonylamino-protanoic acid], the values for the IC50 with gel-filtered platelets and at GPIIb/IIIa [2] were 2100 nM and 18.1 nM, respectively. Further, the inhibition at 50 µM in the experiment on gel-filtered platelets and at GPIIb/IIIa [2] was 100% throughout. Besides, the “Oral Dosing Duration (of >50% inhibition of ADP-induced ex vivo platelet aggregation)” value in experiment [3] (1 mpk) was less than 30 min.
